The molecules below were run on A II receptor (assay: Angiotensin II ligand-receptor binding assay (rabbit aortae membrane preparation / bovine adrenal cortex preparation)). Settings: "at least IC50 <50 μM"; not stated which of the two binding assays (rabbit aortae, 125I-Sar1Ile8-A II; bovine adrenal cortex, 3H-A II); read-out: IC50 (50% displacement of specifically bound radiolabelled angiotensin II ligand).
Description: Angiotensin II (A II) is a powerful arterial vasoconstrictor, and it exerts its action by interacting with specific receptors present on cell membranes. The compounds described in the present invention act as competitive antagonists of A II at the receptors. In order to identify A II antagonists and determine their efficacy in vitro, the following two ligand-receptor binding assays were established.
Receptor binding assay using rabbit aortae membrane preparation
Three frozen rabbit aortae (obtained from Pel-Freeze Biologicals) were suspended in 5 mM Tris-0.25M Sucrose, pH 7.4 buffer (50 ml) homogenized, and then centifuged. The mixture was filtered through a cheesecloth and the supernatant was centrifuged for 30 minutes at 20,000 rpm at 4° C. The pellet thus obtained was resuspended in 30 ml of 50 mM Tris-5 mM MgCl2 buffer containing 0.2% Bovine Serum Albumin and 0.2 mg/ml Bacitration and the suspension was used for 100 assay tubes. Samples tested for screening were done in duplicate. To the membrane preparation (0.25 ml) there was added ^125 I-Sar^1 Ile^8 -angiotensin II [obtained from New England Nuclear] (10 ul; 20,000 cpm) with or without the test sample and the mixture was incubated at 37° C. for 90 minutes. The mixture was then diluted with ice-cold 50 mM Tris-0.9% NaCl, pH 7.4 (4 ml) and filtered through a glass fiber filter (GF/B Whatman 2.4" diameter). The filter was soaked in scintillation cocktail (10 ml) and counted for radioactivity using Packard 2660 Tricarb liquid scintillation counter. The inhibitory concentration (IC50) of potential A II antagonist which gives 50% displacement of the total specifically bound ^125 I-Sar^1 Ile^8 -angiotensin II was presented as a measure of the efficacy of such compounds as A II antagonists.
Receptor assay using Bovine adrenal cortex preparation
Bovine adrenal cortex was selected as the source of A II receptor. Weighed tissue (0.1 g is needed for 100 assay tubes) was suspended in Tris.HCl (50 mM), pH 7.7 buffer and homogenized. The homogenate was centrifuged at 20,000 rpm for 15 minutes. Supernatant was discarded and pellets resuspended in buffer [Na2 HPO4 (10 mM)-NaCl (120 mM)-disodium EDTA (5 mM) containing phenylmethane sulfonyl fluoride (PMSF)(0.1 mM)]. (For screening of compounds, generally duplicates of tubes are used). To the membrane preparation (0.5 ml) there was added 3H-angiotensin II ([…]) (10 ul) with or without the test sample and the mixture was incubated at 37° C. for 1 hour. The mixture was then diluted with Tris buffer (4 ml) and filtered through a glass fiber filter (GF/B Whatman 2.4" diameter). The filter was soaked in scintillation cocktail (10 ml) and counted for radioactivity using Packard 2660 Tricarb liquid scintillation counter. […]

Row | IC50 | Compound
1 | < 50 µM | CCCCc1nc2cscc2n1Cc1ccc(-c2ccccc2C(=O)O)cc1 [Example 1, 4'-[(2-butyl-1H-thieno[3,4-d]imidazol-1-yl)methyl][1,1'-biphenyl]-2-carboxylic acid]
2 | < 50 µM | CCCCc1nc2cc(C(=O)OC)sc2n1Cc1ccc(-c2ccccc2C(=O)O)cc1 [Example 3, 2-butyl-3-[(2'-carboxy{1,1'-biphenyl}-4-yl)methyl]-3H-thieno[2,3-d]imidazole-5-carboxylic acid methyl ester]
3 | < 50 µM | CCCCc1nc2sc(C(=O)OC)cc2n1Cc1ccc(-c2ccccc2-c2nnn[nH]2)cc1 [Example 6, 2-butyl-1-[(2'-{1H-tetrazol-5-yl}{1,1'-biphenyl}-4-yl)methyl]-1H-thieno[2,3-d]imidazole-5-carboxylic acid methyl ester]
4 | < 50 µM | CCCc1nc2c(c(C)nn2C)n1Cc1ccc(-c2ccccc2-c2nnn[nH]2)cc1 [Example 11, 1,4-Dihydro-1,3-dimethyl-5-propyl-4-[(2'-{1H-tetrazol-5-yl}{1,1'-biphenyl}-4-yl)methyl]imidazo[4,5-c]-pyrazole]

Reference: patent US5389660A, “Substituted imidazo-fused 5-membered ring heterocycles as angiotensin II antagonists” (Merck & Co., Inc., priority 1992, dated 1995)
